The results in this text go back to patent US6159696A, “Isolated human BMP-4 promoter region” (priority 1996, dated 2000).

Entries after “also recorded” stand apart in the source; their conditions may differ.

Data set [1] concerns BMP-4 promoter 1 region. Kind of data set: ER-mediated luciferase reporter gene modulation, BMP-4 promoter 1 region constructs, transient transfection of U-2 OS cells with pKCRE-ER. It counts as cell-based, human. To be noted: for ER-mediated expression of the reporter gene under control of BMP-4 promoter region (in words): BMP-4 promoter region reporter plus ER expression vector; for Fold Induction: ratio of luciferase activity in presence and absence of compound, U-2 OS, human ER. The source says: (§1) Additional fragments of promoter region 1 were generated by progressive exonuclease III digestion (Erase-a-base Kit, Promega), blunt-ended with klenow and deoxynucleotide-triphosphates and subcloned into an endoR SmaI-digested pSLA4 luciferase reporter plasmid.
(§2) The human estrogen receptor (ER)-containing mammalian expression construct pKCRE-ER was constructed in the following way. […] The ER-cDNA was isolated as an endoR SphI/EcoRI fragment comprising nucleotide positions -30 to +1800.
ER-mediated reporter gene modulation by different estrogen analogs of individual promoter region constructs were assayed by transient transfection of osteosarcoma cells (U-2 OS). One day prior to transfection, U-2 OS cells were seeded at a density of 10^5 cells per well (6-well tissue culture plates; Nunc). In this case, the cells were seeded in fenolred-free medium containing 10% (v/v) charcoal-stripped Fetal Calf Serum (csFCS) instead of FCS. DNA was introduced using the lipofection method as described by the supplier (Gibco, BRL). Hereto, the DNA (1 μg receptor construct, 1 μg reporter construct and 250 ng transfection control construct in 250 μL Optimem, Gibco BRL; in different experiments the total amount of transfected DNA was kept constant using pKCRE) was mixed with an equal volume of Lipofectin Reagent (Gibco, BRL) and allowed to stand for 30 min at room temperature. To this was added 500 μL of Optimem (RT) and this mixture was added to the cells, after the latter have been washed with serum-free medium. After a 5 h incubation period at 37° C., the cells were washed with fenolred-free and serum-free medium and incubated overnight in fenolred-free and 10% csFCS medium containing the testcompounds at the concentrations indicated. Prior to the preparation of lysates, cells were washed with PBS (7.6 mM Na2 HPO4 /NAH2 PO4 pH 7.4 and 0.12 M NaCl). Cell extracts were prepared by the addition of 200 μL lysis buffer (0.1 M sodium phosphate buffer pH 7.8 and 0.2% Triton X-100) to the cells and allowed to stand for 5 min at room temperature. Luciferase measurements of cell extracts was performed as described by the supplier (Promega; Luciferase assay system E1501). Hereto, 30 μL of cell extract was added to a […] Optiplate (Packard) and combined with 50 μL of luciferase substrate. The plates were sealed with Topseal film (Packard) and measurements were performed in a Topcount (Packard).
Background: In a reporter assay the amount or activity of a reporter protein is the signal.

The subject of data set [2] is estrogen response element (ERE)-containing promoter. Briefly: ER-mediated luciferase reporter gene modulation, estrogen response element promoter construct pERE3 TATA-Luc, transient transfection of U-2 OS cells with pKCRE-ER. It counts as cell-based, human. The conditions noted are these: for expression of the reporter gene under the control of a promoter comprising an estrogen responsive element (ERE) (in words): ERE promoter reporter plus ER expression vector. The source says: The estrogen response element (ERE)-containing promoter construct was based on pBL-CAT6 (Boshart et al., Gene 110, 129, 1992). It was modified into a luciferase (Luc) reporter construct by exchanging the endoR XhoI/StyI fragment of pBL CAT6 (containing the chloramphenicol acetyl transferase coding information) by the endoR XhoI/StyI fragment of pXP2 (containing the luciferase coding information; Nordeen et al., Biotechniques 6, 454, 1988). A minimal promoter/TATA-element with the sequence 5'-GGGTATATAAT-3'(SEQ ID NO:8) was inserted in between the endoR XbaI and endoR BamHI sites resulting in plasmid pTATA-Luc. A triple estrogen response element (ERE) with the core sequence
was inserted in the endoR HindIII site resulting in plasmid pERE3 TATA-Luc.
The human estrogen receptor (ER)-containing mammalian expression construct pKCRE-ER was constructed in the following way. The human ER-cDNA was obtained from G. Greene (Ben May Laboratory for Cancer Research, University of Chicago); it encodes a glycine instead of valine at amino acid position 400 (G. Greene et al., Science 231, 1150, 1986 and Tora et al., EMBO. J, 8, 1981, 1989). The ER-cDNA was isolated as an endoR SphI/EcoRI fragment comprising nucleotide positions -30 to +1800. This fragment was blunted by T4-DNA polymerase and inserted in the blunted endoR BamHI site of the mammalian expression construct pKCR (O'Hara et al., Proc.Natl.Acad.Sci.USA, 78, 1527, 1981). The latter plasmid was modified in that the last exon region of the rabbit β-globin gene was removed by digestion with endoR EcoRI/BgIII, filling in, and religation (nucleotide position 1122-1196; Van Ooyen et al., Science 206, 337, 1979) and the replacement of pBR322 for pBR327 sequences.
(§3) ER-mediated reporter gene modulation by different estrogen analogs of individual promoter region constructs were assayed by transient transfection of osteosarcoma cells (U-2 OS). One day prior to transfection, U-2 OS cells were seeded at a density of 10^5 cells per well (6-well tissue culture plates; Nunc). In this case, the cells were seeded in fenolred-free medium containing 10% (v/v) charcoal-stripped Fetal Calf Serum (csFCS) instead of FCS. DNA was introduced using the lipofection method as described by the supplier (Gibco, BRL). Hereto, the DNA (1 μg receptor construct, 1 μg reporter construct and 250 ng transfection control construct in 250 μL Optimem, Gibco BRL; in different experiments the total amount of transfected DNA was kept constant using pKCRE) was mixed with an equal volume of Lipofectin Reagent (Gibco, BRL) and allowed to stand for 30 min at room temperature. To this was added 500 μL of Optimem (RT) and this mixture was added to the cells, after the latter have been washed with serum-free medium. […]

Data set [3] deals with pSLA4 luciferase reporter plasmid. Briefly: ER-mediated luciferase reporter gene modulation, pSLA4 reporter without BMP-4 promoter region, transient transfection of U-2 OS cells with pKCRE-ER. It counts as cell-based, human.
From the text: as §1, §2
as §3, with “temperature.” for “temperature. To this was added 500 μL of Optimem (RT) and this mixture was added to the cells, after the latter have been washed with serum-free medium.”

For data set [4], the system named is BMP-4 promoter 2 region. Briefly: ER-mediated luciferase reporter gene modulation, BMP-4 promoter 2 region constructs, transient transfection of U-2 OS cells with pKCRE-ER. It counts as cell-based. To be noted: human ER (FIG. 8, FIG. 9).
From the text: as §1, §2
as §3, with “temperature.” for “temperature. To this was added 500 μL of Optimem (RT) and this mixture was added to the cells, after the latter have been washed with serum-free medium.”

Where [5] appears, read: promoter region not further specified.

For the compound `CC/C(=C(\c1ccc(O)cc1)c1ccc(OCCN(C)C)cc1)c1ccccc1` [4OH-tamoxifen], the “ER-mediated expression of the reporter gene under control of BMP-4 promoter region (in words)” value (“ER-mediated expression” below) in data set [1] (setting [5]) is on record as “can also be achieved”.

Turning to `C[C@]12CC[C@@H]3c4ccc(O)cc4CC[C@H]3[C@@H]1CC[C@@H]2O` [Estradiol, 17β-estradiol], the “ER-mediated expression” value in data set [1] (promoter region not further specified in the sentence, listed as 17-β-estradiol) is “did not show a significant transcriptional effect”; in data set [1] (promoter region not further specified in the sentence, listed as 17β-estradiol) it was “did not induce the expression of the reporter gene”. Also, the figures for the “Fold Induction” value in data set [2] (u-2 os cells) and in data set [3] (u-2 os cells) were 26 ± 7 fold and 0.7 ± 0.1 fold, respectively.

Consider `CCCCN(C)C(=O)CCCCCCCCCC[C@@H]1Cc2cc(O)ccc2[C@H]2CC[C@]3(C)[C@@H](O)CC[C@H]3[C@H]12` [ICI 164384], for which, in data set [1] (setting [5]), the “ER-mediated expression” value is reported as “considerable expression of the reporter gene; also recorded: can also be achieved”.

For `O=C(c1ccc(OCCN2CCCCC2)cc1)c1c(-c2ccc(O)cc2)sc2cc(O)ccc12` [Raloxifene, raloxifene], in data set [1] (setting [5]), the “ER-mediated expression” value is recorded as “could be induced and/or stimulated; also recorded: induced expression of the reporter gene”. The “Fold Induction” value came out at 3.8 ± 0.6 fold in data set [1] (construct pSLA4.IN+16); 3.1 ± 0.3 fold in data set [1] (construct pSLA4.IN+33); 1.1 ± 0.2 fold in data set [1] (construct pSLA4.IN-42); 3.4 ± 0.5 fold in data set [1] (construct pSLA4.INX); 3.7 ± 0.7 fold in data set [1] (construct pSLA4.1EX (-1166/+173)); 3.3 ± 0.5 fold in data set [1] (construct pSLA4.1PX (-697/+173)). The “Fold Induction” value in data set [2] (construct pERE3 TATA-Luc, ratio of luciferase activity in presence and absence of compound, U-2 OS, human ER) came out at 0.7 ± 0.3 fold; in data set [3] (construct pSLA4 (no BMP-4 promoter region), ratio of luciferase activity in presence and absence of compound, U-2 OS, human ER) it was 1.1 ± 0.2 fold. In data set [4], the “ER-mediated effect on BMP-4 promoter 2 region reporter (in words)” value was “also apparent”. In addition, the “expression of the reporter gene under the control of a promoter comprising an estrogen responsive element (ERE) (in words)” value in data set [2] is “neither of these compounds were able to induce expression of the reporter gene”.

As to `CC/C(=C(\c1ccccc1)c1ccc(OCCN(C)C)cc1)c1ccccc1` [tamoxifen], the “ER-mediated expression” value in data set [1] (setting [5]) is “could be induced and/or stimulated; also recorded: induced expression of the reporter gene”. Besides, in data set [2], the “expression of the reporter gene under the control of a promoter comprising an estrogen responsive element (ERE) (in words)” value is given as “neither of these compounds were able to induce expression of the reporter gene”.
